Patent USRE37781E1, “Substituted cyclic carbonyls and derivatives thereof useful as retroviral protease inhibitors” (DuPont Pharmaceuticals Company, priority 1991, dated 2002)
Values after ≈ are worked out from the molar mass of the structure shown. Read-outs that look alike come from different tables or passages of the source. Values belong to the compound of their own block, whether it stands above or below them.

Key:
[1] = biological target: single-chain tethered dimer of HIV protease (Human immunodeficiency virus 1, UniProt P04585); assay: biochemical; assay type: biochemical; parameters: fused on or other part: A second copy of the same protease unit is joined to the first by a short peptide tether, giving one polypeptide
Description: HIV Protease Inhibition Assay—HPLC Method
Active protease was prepared as described therein by extraction with 67% acetic acid, dilution 33-fold with water, dialysis against water and then against a “refolding buffer” consisting of 20 mM MES, 1 mM dithiothreitol and 10% glycerol. Protease was stored as a stock preparation at 10 uM in refolding buffer.
Substrate: Peptide of sequence: aminobenzoyl-Ala-Thr-His-Gln-Val-Tyr-Phe(NO2)-Val-Arg-Lys-Ala containing p-nitrophenylalanine, was prepared by solid phase synthesis as previously described Cheng et al., op.cit. Stock solutions of 2 mM substrate were prepared in DMSO.
Inhibitory compounds were dissolved in sufficient DMSO to make 3 mM stock solutions. All further dilutions were prepared in “assay buffer”: 1M NaCl, 50 mM MES, pH 5.5, 1 mM EDTA, 1 mM DTT, […] glycerol.
Enzyme reaction: In a 2 ml screw-cap centrifuge tube were added 50 ul protease (final concentration 0.25 nM) and 0.1 ml inhibitory compound (final concentration […]). After 15 min preincubation at room temperature, the reaction was started with the addition of 0.05 ml substrate (final concentration 5 uM). Incubation was carried out at 30 C. for 1 hr. The reaction was stopped with 1 ml 0.1M ammonium hydroxide.
HPLC measurement of product formation: The product (aminobenzoyl-Ala-Thr-His-Gln-Val-Tyr) was separated from substrate on a Pharmacia MonoQ anion exchange column. The injection volume was 0.2 ml. The mobile phases were: A (20 mM trisHCl, pH 9.0, 0.02% sodium Azide, 10% acetonitrile), B (20 mM tris HCl, pH 9.0, 0.02% sodium azide, 0.5M ammonium formate, 10% acetonitrile). The mobile phases were pumped at 1 ml/min, with a gradient from 0 to 30% B in 5 min, 100% B for 4 min to wash the column, and a re-equilibration for 4 min. The retention time of the product was 3.6 min. Detection with a Shimadzu model RF535 fluorescence monitor was at 330 nm (excitation) and 430 (emission).

HIV-1 (RF) in MT-2 cells = assay: microbe, parasite or virus in culture; assay type: cell-based
Description: DNA Plasmids and in vitro RNA transcripts:
Plasmid pDAB 72 containing both gag and pol sequences of BH10 (bp 113-1816) cloned into PTZ 19R was prepared according to Erickson-Viitanen et al. AIDS Research and Human Retroviruses 1989, 5, 577. The plasmid was linearized with Bam HI prior to the generation of in vitro RNA transcripts using the Riboprobe Gemini system II kit (Promega) with T7 RNA polymerase. Synthesized RNA was purified by treatment with RNase free DNAse (Promega), phenol-chloroform extraction, and ethanol precipitation. RNA transcripts were dissolved in water, and stored at −70° C. The concentration of RNA was determined from the A260.
Biotinylated capture probes were purified by HPLC after synthesis on an Applied Biosystems (Foster City, Calif.) DNA synthesizer by addition of biotin to the 5′ terminal end of the oligonucleotide, using the biotin-phosphoramidite reagent of Cocuzza, Tet. Lett. 1989, 30, 6287. The gag biotinylated capture probe (5-biotin-[…] 3′) was complementary to nucleotides 889-912 of HXB2 and the pol biotinylated capture probe (5′-biotin-[…] 3′) was complementary to nucleotides 2374-2395 of HXB2. Alkaline phosphatase conjugated oligonucleotides used as reporter probes were prepared by Syngene (San Diego, Calif.). The pol reporter probe (5′ […] 3′) was complementary to nucleotides 2403-2425 of HXB2. The gag reporter probe (5′ […] 3′) was complementary to nucleotides 950-973 of HXB2. All nucleotide positions are those of the GenBank Genetic Sequence Data Bank as accessed through the Genetics Computer Group Sequence Analysis Software Package (Devereau Nucleic Acids Research 1984, 12, 387). The reporter probes were prepared as 0.5μM stocks in 2× SSC (0.3M NaCl, 0.03M sodium citrate), 0.05M Tris pH 8.8, 1 mg/mL BSA. The biotinylated capture probes were prepared as 10 μM stocks in water.
Streptavidin coated plates:
Nunc-immunomodule microtiter plate strips were coated by addition of 200 μL of streptavidin (30 ug/mL, Scripps, La Jolla, Calif.) in freshly prepared 10 mM sodium carbonate (pH 9.6). Plates were incubated overnight at 4° C. Streptavidin solution was aspirated from the wells and a blocking buffer composed of phosphate buffered saline (PBS), 20 mg/mL bovine serum albumin (crystalline, nuclease and protease free, Calbiochem) and 100 mg/mL lactose (Sigma) was added to the plates for 3 hrs at room temperature. Blocking buffer was removed from the wells, which were allowed to dry overnight at room temperature and subsequently stored at 4° C. in zip lock bags with desiccant. For the majority of the compound evaluation experiments, streptavidin coated plates were obtained from Du Pont Biotechnology Systems (Boston, Mass.).
MT-2, CEM, and H9 cells were maintained in RPMI 1640 supplemented with 5% fetal calf serum (FCS), 2 mM L-glutamine and 50 μg/mL gentamycin, all from Gibco. Laboratory strains of HIV-1 (RF, MN and IIIB) were propagated in H9 cells in the same medium. Virus stocks were prepared approximately 1 month after acute infection of H9 cells by clarification of the tissue culture medium and storage of aliquots at −70° C. […] Each aliquot of virus stock used for infection was thawed only once. In some cases, infected H9 cells were shifted to Dulbecco's modified Eagle's medium 3-10 days before collection of virus in order to generate virus stocks in medium with low biotin content. Clinical isolates of HIV that had been passaged once in MT-2 cells were used to infect fresh MT-2 cells in RPMI medium. Three days after infection, cells were pelleted, resuspended and culture continued in Dulbecco's modified Eagle's medium as above. Virus stocks of clinical isolates were prepaid 10-15 days after infection when cytopathic effects were apparent in the culture.

[2] = Human immunodeficiency virus 1, MT2, Table 1e, read-out: IC90
[3] = Human immunodeficiency virus 1, MT2, 24 h, Table 1d, upper part, read-out: IC90
[4] = Human immunodeficiency virus 1, MT2, HIV RNA assay, HIV-1 infected MT-2 cells, class symbols, read-out: IC90

SMILES: ON=C1N(Cc2ccccc2)C(Cc2ccccc2)C(O)C(O)C(Cc2ccccc2)N1Cc1ccccc1 (centres unmarked) [Example 17A]
Ki ([1]; Table 2f, read-out: HPLC Ki): 10 to 1000 nM | Ki ([1]; second table headed Table 2f, read-out: HPLC Ki): 10 to 1000 nM | Ki ([1]; third table headed Table 2f, read-out: HPLC Ki): 10 to 1000 nM

IC90 (HIV-1 (RF) in MT-2 cells; [2]): > 100 µg/mL
SMILES: O=C1N(Cc2ccc3ccccc3c2)C(C(F)Cc2ccccc2)[C@@H](O)[C@@H](Cc2ccccc2)N1Cc1ccc2ccccc2c1 (some centres unmarked) [Example 7X]

SMILES: C=CCOC1C(O)C(Cc2ccccc2)N(CC2CC2)C(=O)N(CC2CC2)C1Cc1ccccc1 (centres unmarked) [Example 7AJ]
Ki ([1]; read-out: HPLC Ki, Table 1d, lower part): 10 to 1000 nM

IC90 (HIV-1 (RF) in MT-2 cells; Table 1e): + (+=>100 μg/mL)
SMILES: NC(=NO)c1cccc(CN2C(=O)N(Cc3cccc(C(N)=NO)c3)C(Cc3ccccc3)C(O)C2CCc2ccccc2)c1 (centres unmarked) [Example 8AO]

SMILES: O=C1N(c2ccccc2)C(Cc2ccccc2)C(O)C(O)C(Cc2ccccc2)N1c1ccccc1 (centres unmarked) [Example 14G]
Ki ([1]; read-out: HPLC K1, Table 2d, class symbols): 10 to 1000 nM

IC90 (HIV-1 (RF) in MT-2 cells; Table 1e): +++ (+++=<10 μg/mL)
SMILES: NC(=NO)c1cccc(CN2C(=O)N(Cc3cccc(C(N)=NO)c3)C(Cc3ccccc3)C(O)C2CCc2ccccc2)c1 (centres unmarked) [Example 8AF]

SMILES: O=C1N(Cc2ccccc2)C(CCc2ccccc2)C(O)C(O)C(CCc2ccccc2)N1Cc1ccccc1 (centres unmarked) [Example 16A]
Ki ([1]; read-out: K4 HPLC, Table 2e): 10 to 1000 nM

SMILES: O=C1N(Cc2ccc(CO)o2)C(Cc2ccccc2)C(O)C(O)C(Cc2ccccc2)N1Cc1ccc(CO)o1 (centres unmarked) [15FY]
Ki ([1]; HIV protease inhibition, HPLC method, Table 2d, read-out: HPLC K1): 10 to 1000 nM

SMILES: CCCCC1C(O)C(O)C(CCCC)N(Cc2ccccc2)C(=O)N1Cc1ccccc1 (centres unmarked) [Example 16AG]
Ki ([1]; Table 2e, read-out: K4 HPLC): > 1000 nM

IC90 (HIV-1 (RF) in MT-2 cells; [2]): > 50 µg/mL
SMILES: O=C1N(Cc2ccc3ccccc3c2)C(CCc2ccccc2)[C@@H](O)[C@@H](Cc2ccccc2)N1Cc1ccc2ccccc2c1 (some centres unmarked) [Example 8G]

IC90 (HIV-1 (RF) in MT-2 cells; [2]): > 100 µg/mL
SMILES: COC(=O)c1cccc(CN2C(=O)N(Cc3cccc(C(=O)OC)c3)C(Cc3ccccc3)C(O)C2CCc2ccccc2)c1 (centres unmarked) [Example 8AQ]

IC90 (HIV-1 (RF) in MT-2 cells; [3]): 10 to 100 µg/mL (≈ 22.4 to 224 µM)
SMILES: O=C1N(CC2CC2)C(Cc2ccccc2)C2OCOC2C(Cc2ccccc2)N1CC1CC1 (centres unmarked) [Example 7H]

IC90 (HIV-1 (RF) in MT-2 cells; [2]): 10 to 100 µg/mL (≈ 16.5 to 165 µM)
SMILES: COC(=O)c1cccc(CN2C(=O)N(Cc3cccc(C(=O)OC)c3)[C@H](Cc3ccccc3)[C@H](O)[C@H]2CCc2ccccc2)c1 [Example 8Y]

SMILES: O=C1N(Cc2ccc(C(F)(F)F)cc2)C(Cc2ccccc2)C(O)C(O)C(Cc2ccccc2)N1Cc1ccc(C(F)(F)F)cc1 (centres unmarked) [Example 6W]
IC90 (HIV-1 (RF) in MT-2 cells; [4]): > 100 µg/mL

IC90 (HIV-1 (RF) in MT-2 cells; [3]): 10 to 100 µg/mL (≈ 16.2 to 162 µM)
SMILES: O=C1N(Cc2ccc3ccccc3c2)C(Cc2ccccc2)C2OCOC2C(Cc2ccccc2)N1Cc1ccc2ccccc2c1 (centres unmarked) [Example 7Q]

IC90 (HIV-1 (RF) in MT-2 cells; Table 2d, HIV RNA assay): +++ (+++=<10 μg/mL)
SMILES: O=C1N(Cc2cccc(I)c2)C(Cc2ccccc2)C(O)C(O)C(Cc2ccccc2)N1Cc1ccc2[nH]nnc2c1 (centres unmarked) [15DT]

IC90 (HIV-1 (RF) in MT-2 cells; Human immunodeficiency virus 1, MT2, 48 h, Table 2d, class symbols, read-out: IC90): < 10 µg/mL
SMILES: CNC(=O)OCCCCCCN1C(=O)N(CCCCCCOC(C)=O)C(Cc2ccccc2)C(O)C(O)C1Cc1ccccc1 (centres unmarked) [Example 12X]

SMILES: O=C1N(Cc2cccc(C(F)(F)F)c2)C(Cc2ccccc2)C(O)C(O)C(Cc2ccccc2)N1Cc1cccc(C(F)(F)F)c1 (centres unmarked) [Example 6Y]
IC90 (HIV-1 (RF) in MT-2 cells; [4]): > 100 µg/mL
